Data as given in ChEMBL document CHEMBL1148347, “Identification of non-phosphate-containing small molecular weight inhibitors of the tyrosine kinase p56 Lck SH2 domain via in silico screening against the pY + 3 binding site” (J Med Chem, 2004).
The source made the active and inactive calls. No cut-off for these calls is given here.

species: Mus musculus; assay: Inhibition of [3H]-thymidine incorporation into murine mixed lymphocyte culture at 100 uM (Significant anti-proliferative activity); format: functional

How did the inhibition turn out when O=C(O)CC1SC(N/N=C2/CCCc3ccccc32)=NC1=O (configuration not stated) was run?
Its inhibition is “Active”.

O=C(O)c1ccccc1SCc1cc(O)nc(O)n1 was tested. Which inhibition did it give?
The inhibition was “Active”.

With COc1ccc([N+](=O)[O-])cc1CSc1nnc(N)s1 as the molecule, how does the inhibition read?
The inhibition was “Active”.

For Cc1ccc(C(=O)O)cc1NC(=O)CCC(=O)O, which inhibition is on record?
Its inhibition is “Active”.

How did the inhibition turn out when O=C(O)c1cccc(/N=C2\C(Cl)=C(O)OC2OC(=O)c2ccccc2)c1 (configuration not stated) was run?
The inhibition was “Active”.

With O=C(NCc1cccs1)c1cccnc1SCc1cccc(Br)c1 as the molecule, how does the inhibition read?
Its inhibition is “Active”.

How did the inhibition turn out when O=C(O)CSc1cccnc1Sc1ccc(Cl)cc1 was run?
The inhibition was “Active”.

How did the inhibition turn out when Cc1ccc(NC(=O)c2cccc(NC(=O)c3ccccc3C(=O)O)c2)cc1C was run?
The inhibition was “Active”.

How did the inhibition turn out when COc1ccc(-n2c(SCC(=O)Nc3ccccc3OC)nc3nnc(C)c-3c2N)cc1 was run?
Its inhibition is “Active”.

Which inhibition does the source give for Cc1ccc(NC(=O)CN2C(=O)S/C(=C\c3ccc(-c4cc(C(=O)O)ccc4C)o3)C2=O)cc1 here?
The inhibition was “Active”.

COc1ccc(OC)c(NC(=O)CCNC(=O)Cn2cnc3ccccc3c2=O)c1 was tested. Which inhibition did it give?
Its inhibition is “Active”.

target: Tyrosine-protein kinase Lck (Homo sapiens, UniProt P06239); assay: Dissociation constant for p56 Lck tyrosine kinase SH2 domain by fluorescence titration
Sequence (P06239 whole entry, the tested form may be a part): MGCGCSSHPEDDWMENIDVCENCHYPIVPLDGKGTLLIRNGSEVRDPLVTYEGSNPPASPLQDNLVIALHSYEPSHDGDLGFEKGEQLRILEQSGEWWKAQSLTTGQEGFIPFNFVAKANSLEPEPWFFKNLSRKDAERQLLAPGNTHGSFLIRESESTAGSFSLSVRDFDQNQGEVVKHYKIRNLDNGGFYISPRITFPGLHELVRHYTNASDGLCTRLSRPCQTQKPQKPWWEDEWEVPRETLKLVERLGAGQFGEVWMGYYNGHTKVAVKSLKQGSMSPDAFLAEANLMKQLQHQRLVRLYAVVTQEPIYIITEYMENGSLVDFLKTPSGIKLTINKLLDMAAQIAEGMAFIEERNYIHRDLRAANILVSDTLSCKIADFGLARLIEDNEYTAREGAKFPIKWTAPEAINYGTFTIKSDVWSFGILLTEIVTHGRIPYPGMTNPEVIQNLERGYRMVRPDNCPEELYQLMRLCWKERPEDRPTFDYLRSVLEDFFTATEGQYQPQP

With Cc1ccc(NC(=O)CN2C(=O)S/C(=C\c3ccc(-c4cc(C(=O)O)ccc4C)o3)C2=O)cc1 as the molecule, how does the Kd read?
Its Kd is 6 µM.
